According to PMC10025185, “A continuous in silico learning strategy to identify safety liabilities in compounds used in the leather and textile industry” (Archives of Toxicology, 2023):
Where two headings read alike, the source gives them in different places.

Assays:
[1] = test system: androgen and oestrogen receptors; assay: ED assays of androgen and oestrogen receptors (overall experimental ED result); type: cell-based
Description: The transcriptional activation of androgen receptor (AR) assays was carried out by adapting the OECD protocol 458 (OECD [2020]).
MDA-MB-453 cells (8000 cells/well) expressing an AR luciferase reporter were seeded into 384 white plates (Greiner 781098) in culture medium (DMEM (ATCC), 10% foetal bovine serum (Sigma Aldrich), 1% penicillin–streptomycin (Sigma-Aldrich), 75 µg/ml geneticin (Gibco) and incubated overnight at 37 °C 5% CO2 and 95% humidity. After this time, the cell culture medium was discarded and replaced by assay medium (DMEM (ATCC), 0.1% foetal bovine serum (Sigma-Aldrich), and 1% penicillin–streptomycin (Sigma Aldrich)).
For studying a putative agonist effect, compounds were added to the assay plate using an Echo 550 acoustic liquid handler and incubated overnight at 37 °C 5% CO2 and 95% humidity. For studying the putative antagonist effect, compounds were added using an Echo 550 acoustic liquid handler and incubated for 15 min at 37 °C 5% CO2 and 95% humidity. Then, 1 nM 5α-dihydrotestosterone (DHT) was added, and the cell plate was incubated overnight at 37 °C, 5% CO2, and 95% humidity. After compound incubation, the cell medium was removed, 5 µl of lysis buffer 1X (Promega) was added, and the cell plate was incubated with agitation 15 min at room temperature. A freeze–thaw cycle of 10 min at −80 °C and room temperature was performed. Then 25 µl of luciferase assay reagent (Promega) was added and luminescence was determined on an EnSpire plate reader (Perkin Elmer). Data was fitted to a four-parameter sigmoidal model with Prism 5.1 (Graphpad, Inc).
The transcriptional activation of oestrogen receptor (ER) assay was carried out by adapting the OECD protocol 455 (OECD [2021]) and the method of Li et al. ([2013]).
ER luciferase reporter T47D cells (5000 cells/well) were seeded into 384 white plates (Greiner 781098) in culture medium (RPMI 1640 (Thermo Fisher Scientific 52400), 10% foetal bovine serum (Sigma Aldrich F9665), 1% penicillin–streptomycin (Sigma-Aldrich P0781), 75 µg/ml Geneticin (Gibco 10131)) and incubated overnight at 37 °C and 5% CO2. The following day, the cell culture medium was discarded and replaced by assay medium (RPMI 1640 (Thermo Fisher Scientific 52,400), 0.1% foetal bovine serum (Sigma Aldrich F9665), and 1% penicillin–streptomycin (Sigma Aldrich P0781).
The assay was performed as stated before for the AR assay using 17β-estradiol as agonist instead of DHT.
ED was assessed by transactivation in vitro assays to identify agonists and antagonists of the androgen and oestrogen receptors.
Also, the experimental group analysed the endocrine-disrupting activity for the CMR compounds.

zebrafish embryos = test system: zebrafish embryos
Description: Zebrafish embryos obtained and maintained as described previously for toxicity determination were used to determine (I) terato-carcinogenesis assayed as previously informed (Selderslaghs et al. [2009], [2012]) with modifications. In brief, embryos were incubated for 0 hpf up to 120 hpf in the presence and absence of tested compounds. Each condition was assayed in triplicate with 12 embryos per condition per replicate. The appearance of selected characteristics and malformations with respect to normal development were quantified for the eyes, otoliths, heart, circulation, hatching, skeletal deformities, and body position. For each concentration tested, we assessed the mortality and the presence of malformations at 24, 48, 72, 96, and 120 hpf using a light microscope. When possible, the lethal effects (LC50) and terato-carcinogenic effects (EC50) were determined using the ToxRat software. Based on these values, a teratogenic index (TI) was calculated as LC50/EC50. Based on previous studies, we considered a compound to be a teratogen when TI > 2 at 120 hpf. When no TI could be calculated due to no malformations induction to a degree extensive enough to calculate the EC50 in the presence of high toxicity, the compound was considered a non-teratogen. (II) Neurotoxicity was assayed by evaluating the locomotor activity in embryos exposed to the tested compounds from 0 to 120 hpf using Zebrabox and Zebralab (ViewPoint). We tested three concentrations (24 embryos per concentration) below the NOEC to avoid readily toxic concentrations. After incubation with tested compounds for 120 hs in 96-well plates, the activity of larvae in response to transitions from dark to light was evaluated. The protocol involved an initial 10 min acclimation period inside the Zebrabox, followed by three cycles of light–dark of 10 min each. After the end of each cycle, the integrated activity of each embryo was registered. Statistical analysis was done using ANOVA, followed by the Tukey post hoc test. Differences were considered significant when p < 0.05. Dead embryos were not considered in the analysis. (III) The endocrine-disrupting effect in zebrafish embryos was assayed by real-time PCR as previously reported (Jarque et al. [2019]) with modifications. In brief, 0 hpf embryos (12 embryos per condition in triplicate) were incubated with selected compounds for up to 120 hpf. After incubation, treated (embryos incubated at the concentration right below the NOEC) and control embryos were collected in RNA later and kept at − 20°C until use. RNA was extracted from the samples using the RNeasy Mini Kit (QIAGEN) and was followed by cDNA synthesis using random primers and the AffinityScript Multi Temperature cDNA Synthesis Kit (Agilent Technologies). Finally, real-time PCR was performed for eight target genes to obtain data on the estrogenic (cytochrome P450 family 19 subfamily A member 1: cyp19a1b, and vitellogenin: vtg1), androgenic (cytochrome P450 family 2 […]: cyp2k22, and cytosolic sulphotransferase 3: sult2st3), and thyroid hormone (thyroid peroxidase: tpo, thyroid hormone receptor alpha: tra, transthyretin: ttr, and iodothyronine deiodinase 2: dio2) effect of the tested compounds. Significant changes in gene expression between controls and treated samples were considered as a potential endocrine-disrupting effect.

[2] = CMR experimental result (carcinogenicity, micronucleus and reprotoxicity combined, logical OR)
Source text: For comparison with the prediction results, the results of the carcinogenicity, micronucleus, and reprotoxicity assays were combined using a logical OR operator. Therefore, we consider that compounds with a positive result for any of these three experimental assays is a CMR positive.

[3] = real-time PCR, zebrafish embryos
[4] = second of two columns headed Neurotoxic
[5] = positive in any of the three experimental assays

Compound | Experimental result [1] | Reprotoxicity (R) Neurotoxic (zebrafish embryos; in vivo) | induction of cytochrome P450 2 K (zebrafish embryos; [3]) | induction of vitellogenin (zebrafish embryos; [3]) | Reprotoxicity (R) Endocrine disruptor (zebrafish embryos; in vivo) | CMR experimental result [2] | Experimental result ([1]; endocrine disruptor yes/no) | Reprotoxicity (R) Neurotoxic (zebrafish embryos; [4]) | CMR experimental result [2, 5] | Reprotoxicity (R) Endocrine disruptor (zebrafish embryos; gene expression, 120 hpf, concentration right below NOEC)
CCCCC(CC)CN (stereo not shown) [2-Ethylhexylamine] | Yes | No | induced | induced |  |  |  |  |  | 
CNC(=O)c1cc(Cl)ccn1.Cl [4-Chloro-N-methylpyridine-2-carboxamide hydrochloride (1:1)] | No | No |  |  | No | NO |  |  |  | 
CCN(CC)c1ccc(N=Nc2c(Cl)cc([N+](=O)[O-])cc2[N+](=O)[O-])c(NC(C)=O)c1 [N-[2-[(2-chloro-4,6-dinitrophenyl)azo]-5-(diethylamino)phenyl]acetamide] |  |  | induced |  |  |  | Yes | No | YES | 
O=C(OCCc1ccccc1)c1ccccc1 [Phenethyl benzoate] | No | No |  |  | No |  |  |  |  | 
Reaction mass of cis-4-(isopropyl) cyclohexanemethanol and trans-4-(isopropyl) cyclohexanemethanol |  |  |  |  |  |  | No | No | YES | No
